Experiments:
A549 = test: Antiproliferative activity against human A549 cells assessed as reduction in cell viability incubated for 48 hrs by CCK8 assay; type: functional, cell-based; details: A549, 48 h
HepG2 = test: Antiproliferative activity against human HepG2 cells assessed as reduction in cell viability incubated for 48 hrs by CCK8 assay; type: functional, cell-based; details: HepG2, 48 h
MCF7 = test: Antiproliferative activity against human MCF7 cells assessed as reduction in cell viability incubated for 48 hrs by CCK8 assay; type: functional, cell-based; details: MCF7, 48 h
[1] = Cytotoxicity against mouse RAW264.7 cells assessed as cell viability at 10 uM incubated for 48 hrs by CCK8 assay; type: toxicity, cell-based; details: read-out: Activity
[2] = Cytotoxicity against human L02 cells assessed as cell viability at 10 uM incubated for 48 hrs by CCK8 assay; type: toxicity, cell-based; details: read-out: Activity
SGC-7901 = test: Antiproliferative activity against human SGC-7901 cells assessed as reduction in cell viability incubated for 48 hrs by CCK8 assay; type: functional, cell-based; details: SGC-7901, 48 h
RAW264.7 = test: Antiinflammatory activity in mouse RAW264.7 assessed as inhibition of LPS-stimulated NO production pretreated with LPS followed by compund addition by Griess reagent based microplate reader assay; type: functional, cell-based

| Structure (SMILES) | IC50 (A549) [µM] | IC50 (HepG2) [µM] | IC50 (MCF7) [µM] | viability at 48 h, 10 µM [1] [%] | viability at 48 h, 10 µM [2] [%] | IC50 (SGC-7901) [µM] | inhibition (INH) (RAW264.7) [%] | IC50 (RAW264.7; Mus musculus, RAW264.7) [µM] |
| --- | --- | --- | --- | --- | --- | --- | --- | --- |
| C=C1C(=O)O[C@@H]2C[C@@]1(C)[C@@H]1C(=O)[C@@]3(O)O[C@]14[C@@]2(C)OC(=O)[C@@]4(O)CC[C@H]1[C@H]3CC=C2CC=CC(=O)[C@@]21C | 8.9 | 13.2 | 7.6 | 90.7 | 94.2 | 2.8 | <50 |  |
| C[C@@]12C[C@H]3OC(=O)[C@@H]1CO[C@@]14O[C@@]5([C@H]2C1=O)[C@@]3(C)OC(=O)[C@@]5(O)CC[C@H]1[C@H]4C[C@@H](O)[C@@]2(Cl)CC=CC(=O)[C@]12C | 21.7 | 24.7 | 12.5 | 98.3 | 95.3 | 12.7 | <50 |  |
| C=C1C(=O)O[C@@H]2C[C@@]1(C)[C@@H]1C(=O)[C@@]3(O)O[C@]14[C@@]2(C)OC(=O)[C@@]4(O)CC[C@H]1[C@H]3CC=C2C=CCC(=O)[C@@]21C | 4.2 | 9.4 | 1.2 | 91.4 | 95.4 | 9.1 | <50 |  |
| C=C1C(=O)O[C@@H]2C[C@@]1(C)[C@@H]1C(=O)[C@@]3(O)O[C@]14[C@@]2(C)OC(=O)[C@@]4(O)CC[C@H]1[C@H]3C[C@H]2O[C@]23CC=CC(=O)[C@]13C | 0.2 | 1.3 | 0.9 | 85.2 | 90.2 | 0.3 | <50 |  |
| C=C1C(=O)O[C@@H]2C[C@@]1(C)[C@@H]1C(=O)[C@@]3(O)O[C@]14[C@@]2(C)OC(=O)[C@@]4(O)CC[C@H]1[C@H]3C[C@@H](O)[C@@]2(O)CC=CC(=O)[C@]12C | 5.4 | 9.8 | 7.3 | 93.5 | 97.5 | 12.4 | <50 |  |
| C=C1C(=O)O[C@@H]2C[C@@]1(C)[C@@H]1C(=O)[C@@]3(O)O[C@]14[C@@]2(C)OC(=O)[C@@]4(O)CC[C@H]1[C@H]3C[C@@H](O)[C@@]2(OC)CC=CC(=O)[C@]12C | 11.4 | 14 | 10.6 | 94.2 | 98.1 | 7.8 |  | 25.6 |
| C=C1C(=O)O[C@@H]2C[C@@]1(C)[C@@H]1C(=O)[C@@]3(O)O[C@]14[C@@]2(C)OC(=O)[C@@]4(O)CC[C@H]1[C@H]3C[C@@H](O)C2=CC=CC(=O)[C@@]21C | 7 | 8.3 | 12.5 | 92.3 | 95.2 | 9.8 | <50 |  |
| C[C@]12C(=O)CC=CC1=CC[C@@H]1[C@@H]2CC[C@]2(O)C(=O)O[C@@]3(C)[C@H]4C[C@]5(C)[C@@H](CO[C@]16O[C@@]32[C@H]5C6=O)C(=O)O4 | 4.3 | 9.8 | 2.5 | 94.2 | 92.5 | 8.9 | <50 |  |
| C[C@]12C(=O)C=CCC1=CC[C@@H]1[C@@H]2CC[C@]2(O)C(=O)O[C@@]3(C)[C@H]4C[C@]5(C)[C@@H](CO[C@@]16O[C@@]32[C@H]5C6=O)C(=O)O4 [PHYSALIN B] | 11.9 | 11.7 | 11.2 | 95.8 | 97.8 | 12.1 | <50 |  |
